Results published in ChEMBL document CHEMBL5729279, “Cycloalkyl-diamines for the treatment of inflammation” (2022).

Molecular target: Sigma non-opioid intracellular receptor 1 (Homo sapiens, UniProt Q99720)
Test: Pharmacological Activity: Ki determinations were generously provided by the National Institute of Mental Health's Psychoactive Drug Screening Program (PDSP).

Sequence of Sigma non-opioid intracellular receptor 1 (Q99720 whole entry): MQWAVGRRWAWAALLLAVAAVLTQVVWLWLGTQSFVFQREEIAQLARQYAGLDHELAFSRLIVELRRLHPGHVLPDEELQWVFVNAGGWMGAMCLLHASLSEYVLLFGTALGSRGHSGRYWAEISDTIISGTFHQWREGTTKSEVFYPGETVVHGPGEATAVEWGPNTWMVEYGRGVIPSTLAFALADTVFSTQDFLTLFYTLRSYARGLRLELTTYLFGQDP

In the case of `CN[C@@]1(c2ccccc2Cl)CCCCC1NCCCN1CCCC1` (stereo partly specified), the Ki is reported as 37.2 nM.
